According to EP4168403B1 (priority 2020, dated 2021):
Entries after “also recorded” stand apart in the source; their conditions may differ.

Tests used:
[1] = Oxygen Radical Absorbance Capacity (ORAC-FL) assay; details: Trolox equivalents (µmol of Trolox equivalent/µmol of compound)
Procedure: The radical scavenging capacity of the TFAHs was determined by the ORAC-FL method using fluorescein as a fluorescent probe^33,34. (±)-6-Hydroxy-2,5,7,8-tetramethylchromane-2-carboxylic acid (Trolox), fluorescein (FL) and 2,2'-azobis(amidinopropane) dihydrochloride (AAPH) were purchased from Sigma-Aldrich. A Varioskan Flash plate reader with built-in injectors (Thermo Scientific) was used. The reaction was carried out at 37 °C in 75 mM phosphate buffer (pH= 7.4), and the final volume reaction mixture was 200 µL. The tested compounds and Trolox standard were dissolved in DMSO to 10 mM and further diluted in 75 mM phosphate buffer (pH= 7.4). The final concentrations were 0.1-1 µM for the tested compounds and 1-8 µM for Trolox standard. The blank was composed of 120 µL of FL, 60 µL of AAPH and 20 µL of phosphate buffer (pH=7.4) and was added in each assay.
The net AUC corresponding to a sample was calculated as follows: Net AUC = AUCantioxidant −AUCblank . [formula]
Regression equations were calculated by plotting the net AUC against the antioxidant concentration. The ORAC value was obtained by dividing the slope of the latter curve between the slope of the Trolox curve obtained in the same assay. Final ORAC values were expressed as µmol of Trolox equivalent/µmol of TFAH.

[2] = system: voltage-gated Ca^2+ channels (VGCC); assay: Calcium channel antagonist assay (K+-evoked cytosolic Ca2+, Fluo-4); assay type: cell-based; details: SH-SY5Y cells, K+ 70 mM, mean ± SEM, read-out: IC50 (µM) Calcium channels blockade
Procedure: The cytosolic Ca^2+ has been measured in SH-SY5Y cells. SH-SY5Y cells were maintained similarly to what was previously described^30. Free cytosolic Ca^2+ was measured using the fluorescent Ca^2+ indicator Fluo-4/AM (Fluo-4 acetomethoxyester). SH-SY5Y cells were seeded onto 96-well black plates at a density of 10^5 cells per well, achieving confluence after 48 h. Cells were washed with Krebs-Hepes solution (KH, in mM: 144 NaCl, 5.9 KCl, 1.2 MgCl2, 2 CaCl2, 11 D-glucose, 10 HEPES, pH 7.4). Cells were loaded with 10 µM Fluo-4/AM and 0.2% pluronic acid in KH and incubated for 45 min at 37 °C in the dark. Then, cells were washed twice with KH to remove the excess of probe. Tested compounds were incubated 10 min before K+ 70 mM was applied to evoke the increment of cytosolic Ca^2+. To normalize Fluo-4 signals, Triton X-100 (5%) and 1 M MnCl2 were applied to register both maximal and minimal fluorescence, respectively. The experiments were analyzed at excitation and emission wavelengths of 485 and 520 nm, respectively, and fluorescence was measured in a fluorescence microplate reader (FLUOstar Optima, BMG, Germany). Data were calculated as a percentage of Fmax - Fmin.
The blocking effect of the depolarization-induced Ca^2+ uptake was investigated in SH-SY5Y neuroblastoma cells stimulated with an extracellular concentration of K+ 70 mM, which induces the cell Ca^2+ levels elevation by opening voltage-gated Ca^2+ channels (VGCC), monitored with the Ca^2+-sensitive fluorescent dye Fluo-4. Nifedipine was used as positive standard.

[3] = target: T1, Human red-blood cell acetylcholinesterase (hAChE; EC 3.1.1.7) (Homo sapiens, UniProt P22303); assay: biochemical; details: pH 7.4, 37 °C, mean ± SEM, read-out: AChE (IC50 µM)
T1 construct: Human red-blood cell acetylcholinesterase; purchased Sigma-Aldrich (Prague, Czech Republic); host or cells: human red blood cells
Procedure: The AChE and BuChE inhibitory activity of the tested compounds was determined using a modified Ellman's method^31, 32.Human red-blood cell acetylcholinesterase (hAChE; EC 3.1.1.7), and human recombinant butyrylcholinesterase (hBuChE; EC 3.1.1.8), 5,5'-dithiobis(2-nitrobenzoic acid) (Ellman's reagent, DTNB), phosphate buffer (PB, pH 7.4), acetylthiocholine (ATC), and butyrylthiocholine (BTC), were purchased from Sigma-Aldrich (Prague, Czech Republic). Nunc polystyrene 96-well microplates with flat-bottom shape (ThermoFisher Scientific, USA) were used for the measurement and all the assay were carried out in 0.1 M KH2PO4/K2HPO4 buffer, pH 7.4. Enzyme solution was prepared at activity 2.0 units/mL in 2 mL aliquots. The assay mixture (100 µL) consisted of 40 µL of 0.1 M phosphate buffer (pH 7.4), 20 µL of 0.01 M DTNB, 10 µL of enzyme, and 20 µL of 0.01 M substrate (ATC iodide solution). Tested compounds were dissolved first in methanol (BIGI 23 in DMSO) and then further diluted by assay buffer to the final concentration. […] Enzyme with the inhibitor was preincubated for 5 min in the assay mixture and then the reaction was started by addition of 20 µL of substrate (ATC for AChE, BTC for BuChE). […] Each concentration was assayed in triplicate. The obtained data were used to compute the percentage inhibition (I; Equation 1): I = 1−(ΔAi)/(ΔA0) [%] [formula] ΔAi indicates the absorbance change provided by cholinesterase exposed to AChE inhibitors and ΔA0 indicates absorbance change caused by intact cholinesterase (phosphate buffer was used instead of AChE inhibitor solution).

[4] = Prediction of blood-brain barrier penetration (PAMPA); assay type: in vitro ADME; details: for CNS: PAMPA prediction of ability to cross the blood-brain barrier
Procedure: To predict passive blood-brain penetration of novel compounds modification of the parallel artificial membrane permeation (PAMPA) assay has been used based on reported protocol^38, 39. The filter membrane of the donor plate was coated with PBL (Polar Brain Lipid, Avanti, USA) in dodecane (4 µl of 20 mg/ml PBL in dodecane) and the acceptor well was filled with 300 µl of PBS pH 7.4 buffer (VD). Tested compounds were dissolved first in DMSO (0.5% (V/V) final) and that diluted with PBS pH 7.4 to reach the final concentration 50 µM in the donor well. 300 µl of the donor solution was added to the donor wells (VA) and the donor filter plate was carefully put on the acceptor plate so that coated membrane was "in touch" with both donor solution and acceptor buffer. Test compound diffused from the donor well through the lipid membrane (Area=0.28cm^2) to the acceptor well. The concentration of the drug in both donor and the acceptor wells was assessed after 3, 4, 5 and 6 hours of incubation in quadruplicate using the UV plate reader Synergy HT (Biotek, USA) at the maximum absorption wavelength and the standard curve for each compound. […]

T1 sequence (P22303 32-617 isoform P22303-2 limits assumed): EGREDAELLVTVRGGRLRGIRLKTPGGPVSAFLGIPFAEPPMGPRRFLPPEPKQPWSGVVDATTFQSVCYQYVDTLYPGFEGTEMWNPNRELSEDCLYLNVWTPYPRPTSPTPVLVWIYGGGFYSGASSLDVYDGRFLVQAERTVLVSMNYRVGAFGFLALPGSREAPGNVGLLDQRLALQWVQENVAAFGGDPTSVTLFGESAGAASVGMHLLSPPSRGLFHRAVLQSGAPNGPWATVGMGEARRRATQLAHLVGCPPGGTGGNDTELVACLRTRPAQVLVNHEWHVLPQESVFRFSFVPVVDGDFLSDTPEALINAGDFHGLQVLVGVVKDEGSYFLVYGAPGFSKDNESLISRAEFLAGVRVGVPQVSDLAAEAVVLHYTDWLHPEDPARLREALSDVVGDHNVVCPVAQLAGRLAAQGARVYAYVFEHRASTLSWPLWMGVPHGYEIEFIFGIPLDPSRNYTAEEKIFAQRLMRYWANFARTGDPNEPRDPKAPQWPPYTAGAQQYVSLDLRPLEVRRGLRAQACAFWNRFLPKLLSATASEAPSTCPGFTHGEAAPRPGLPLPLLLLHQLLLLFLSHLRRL

| SMILES | ORAC [1] [TE] | IC50 [2] [µM] | IC50 [3] [µM] | CNS [4] | Papp at 50 µM ([4]; PAMPA, PBS pH 7.4, 50 µM in donor well, read-out: Pe ± SEM) [×10⁻⁶ cm/s] |
| --- | --- | --- | --- | --- | --- |
| CCOC(=O)C1=C(C)N(CCC2CCN(Cc3ccccc3)CC2)C(=O)NC1c1coc2c(Cl)cc(Cl)cc2c1=O (racemic) [BIGI-3h, ethyl 1-(2-(1-benzylpiperidin-4-yl)ethyl)-4-(6,8-dichloro-4-oxo-4H-chromen-3-yl)-6-methyl-2-oxo-1,2,3,4-tetrahydropyrimidine-5-carboxylate] | 3.65± 0.07 | 1.4 ± 0.4 | 0.06 | best ability to cross the BBB; also recorded: CNS (+) | 4 ± 0.3 |
| CCOC(=O)C1=C(C)N(CCCC2CCN(Cc3ccccc3)CC2)C(=O)NC1c1coc2cc(CC)ccc2c1=O (stereo not shown) [BIGI-3k, ethyl 1-(3-(1-benzylpiperidin-4-yl)propyl)-4-(7-ethyl-4-oxo-4H-chromen-3-yl)-6-methyl-2-oxo-1,2,3,4-tetrahydropyrimidine-5-carboxylate] | 2.75 ± 0.16 | 1.4 ± 0.5 | 0.5 ± 0.02 | CNS (-) |  |
| CCOC(=O)C1=C(C)N(CCC2CCN(Cc3ccccc3)CC2)C(=O)NC1c1coc2ccc(Br)cc2c1=O (stereo not shown) [BIGI-3e, ethyl 1-(2-(1-benzylpiperidin-4-yl)ethyl)-4-(6-bromo-4-oxo-4H-chromen-3-yl)-6-methyl-2-oxo-1,2,3,4-tetrahydropyrimidine-5-carboxylate] | 3.26 ± 0.12 | 1.9 ± 0.6 | 0.06 | CNS (+/-) |  |
